From patent publication US20050233403A1, “Human adipocyte cell populations and methods for identifying modulators of same” (AdipoGenix, Inc., priority 2002, published 2005)
Where two headings read alike, the source gives them in different places.

How the values were obtained:
3T3-L1 cells [1] = assay: Fluorescent fatty acid uptake by 3T3-L1 cells, 96-well format; type: cell-based; conditions: for Uptake by 3T3-L1 cells, Day 9 / Uptake by 3T3-L1 cells, Day 0: 10 μM dye, one hour, means ± SEM; for Uptake by 3T3-L1 cells, Day 9: cells 9 days in differentiation medium; for Uptake by 3T3-L1 cells, Day 0: cells not incubated in differentiation medium; for Fatty acid uptake, Fluor. Units: dye 120 minutes
Experimental: To establish a rapid, 96 well format, automated assay of fatty acid uptake, the reproducibility and signal-to-noise ratios of four different fatty acid-fluorescent dye conjugates in undifferentiated and differentiated preadipocytes was determined. 3T3-L1 cells were used to compare the fluorescent dyes, the best of which was then selected for the human preadipocyte system. The fluorescent fatty acids tested were
These fatty acid-dye conjugates were chosen because their final size is close to that of physiologically relevant C:18 fatty acids, the most abundant in human fat cells and in the diet (Kokatnur, M., et al.(1979) Am. J. Clin. Nutr. 32:2198-205; Llado, I., et al. (1996) Biochem. Mol. Biol. Int. 40:295-303)). Furthermore, these dyes are vital, allowing the cells to be re-used in additional assays. 3T3-L1 cells were seeded in the wells of a 96-well plate at a density of 3.3×10^3 cells/cm^2 (1×10^3 cells/well). After reaching confluence, cells were exposed to differentiation medium for 0 and 9 days. The wells were washed with assay buffer (150 mM […], 10 mM NaPO4; 3 mM KCl; 10 μM CaCl2; 1 mM MgCl2; 25 mM glucose; pH 7.4) containing 20 μM fatty acid-free BSA, pre-warmed to 37° C. The fluorescent fatty acids were added in assay buffer to a final concentration of 10 μM, and incubated at 37° C. for one hour. Wells were washed with assay buffer containing 0.1% BSA.
Table 15 indicates the results of experiments in which 3T3-L1 cells were exposed to a differentiation inducing medium from day 0. Fatty acid uptake was assayed by exposing cells to BODPY for 120 minutes at each of the times represented.

3T3-L1 cells [2] = assay: as above; type: cell-based; conditions: for BODIPY uptake, Day 0 / BODIPY uptake, Day 8: 10 μM
human preadipocytes [3] = assay: Extent of differentiation: % cells with doubly refractile lipid droplets by phase contrast microscopy; type: cell-based; conditions: 10 d
Experimental: (§1) The fatty acid uptake ratio was expressed as a function of fatty acid uptake in control medium. % Diff. represents the proportion of cells that developed doubly refractile lipid droplets visible by phase contrast microscopy by observers unaware of culture conditions. Means of 4 studies are shown. CoV was also determined (not shown) to monitor assay reliability.

human preadipocytes [4] = assay: Fatty acid uptake by human preadipocytes exposed to differentiation medium (fatty acid-based cellulomic assay); type: cell-based; conditions: 10 d, relative to control medium, means of 4 studies
Experimental: The following example describes the optimization of methods used to differentiate human preadipocytes. The example details a thorough analyses of known and potential agents and conditions for promoting human preadipocyte differentiation. Experiments were performed with abdominal subcutaneous as well as mesenteric and omental preadipocytes. A variety of conditions were tested using the fatty acid-based cellulomic assay described in Example 4. Optimization of differentiation conditions enhances the usefulness of human preadipocytes in screening for modulators (e.g., inhibitors) of obesity.
as §1

[5] = system: differentiating adipocytes
Experimental: The assay features differentiated human preadipocytes, but the procedure can be modified in a number of ways to discover novel compounds affecting the adipocytes of human and other species (i.e., rodent). For example, the day of compound addition during preadipocyte differentiation process can be changed as well as the incubation period. Similarly, the day of FA* addition, its type of fluorescent label and chain length, and its concentration and incubation time can be modified. • B. Up to five cell strains of frozen primary human subcutaneous preadipocytes (e.g., subcutaneous preadipocytes) are used, but this number can be increased as needed. Omental and mesenteric preadipocytes can be used in a similar manner. Cells are 10 thawed in PM and grown in tissue culture flasks under standard incubation conditions (5% carbon dioxide, 37° C.). Cells are passaged 1:2 upon 80-100% confluency. Cells are passaged up to ten times to produce enough cells for primary screening. • C. […] Cellular fluorescence of triglyceride droplets that have incorporated FA* is measured on a microplate reader. Efficacy of compounds on inhibiting FA* accumulation is determined by: % Efficacy=100−(sample fluorescence/negative control fluorescence×100). • H. Subsequent determination of compound toxicity on cells is measured by incubating cells (after the post-wash and FA* reading) with an aliquot of Alamar Blue (catalog # DAL-1100, BioSource International), a fluorescent dye that is reduced via cellular metabolism. After incubation of cells with the dye for up to four hours, fluorescence of the reduced compound is read. Alternatively, compound toxicity on cells can be determined in an experiment separate from the primary screen uptake/accumulation assay. Toxicity of compounds is determined by: % Toxicity =100−(sample fluorescence/negative control fluorescence×100).
Subsequent determination of compound toxicity is measured by incubating cells with one tenth of total cell volume of Alamar Blue (an indicator of cellular metabolism) for up to four hours before measuring fluorescence of the reduced compound. […]

[6] = system: human subcutaneous adipocytes; assay: cells; conditions: Adipocyte, read-out: % Efficacy (inhibition of FA* accumulation)
Experimental: (§2) Cells are 10 thawed in PM and grown in tissue culture flasks under standard incubation conditions (5% carbon dioxide, 37° C.). Cells are passaged 1:2 upon 80-100% confluency. Cells are passaged up to ten times to produce enough cells for primary screening. • C. Cells are seeded and differentiated, as described in the previous section, in 384-well plates. • D. On day 6 of preadipocyte differentiation, the DM is first changed as described in the previous section. Cells are then incubated in a replicate manner (i.e., in triplicate) with compounds. […] Compounds are further diluted in a PBS or similarly buffered solution in the absence or presence of albumin to aid compound solubility. […] Positive control cells are treated with a compound or reagent known to modulate their ability to take up and/or accumulate fatty acids. […] The FA* currently used is 4,4-difluoro-5-methyl-4-bora-3a,4a-diaza-s-indacene-3-dodecanoic acid (C1-BODIPY® 500/510 C12, catalog # D-3823, Molecular Probes, Eugene, Oreg.). […] Cells are incubated for four hours at 5% carbon dioxide/37° C., then post-washed with FAB, preferably three times, to remove unincorporated FA*. Cellular fluorescence of triglyceride droplets that have incorporated FA* is measured on a microplate reader. Efficacy of compounds on inhibiting FA* accumulation is determined by: % Efficacy=100−(sample fluorescence/negative control fluorescence×100). • H. Subsequent determination of compound toxicity on cells is measured by incubating cells (after the post-wash and FA* reading) with an aliquot of Alamar Blue (catalog # DAL-1100, BioSource International), a fluorescent dye that is reduced via cellular metabolism. After incubation of cells with the dye for up to four hours, fluorescence of the reduced compound is read. Alternatively, compound toxicity on cells can be determined in an experiment separate from the primary screen uptake/accumulation assay. Toxicity of compounds is determined by: % Toxicity =100−(sample fluorescence/negative control fluorescence×100).
(§3) Primary screens for inhibition of fatty acid uptake are carried out using human subcutaneous preadipocytes in each of two assay formats. In a first assay format, cells are exposed to natural product and synthetic library components early in the differentiation process (days 1-3 following addition of differentiation medium). In a second assay format, cells are exposed to library components late in the process (days 7-10 following addition of differentiation medium), after at least 80% of cells have differentiated.
(§4) Subcutaneous human preadipocytes (passage 3-5) are seeded in plating medium at 3.0×10^4 cells/cm^2 in 96-well or 384-well plates, giving 100% confluence upon adherence. […]

[7] = system: human subcutaneous adipocytes; conditions: positive control
Experimental: as §2, §3, §4

[8] = Dex 10^−4 M in suboptimal differentiation medium
[9] = Dex 10^−7 M in suboptimal differentiation medium
[10] = Dex 10^−10 M in suboptimal differentiation medium

For `CCCCCCC(C/C=C\CCCCCCCC(=O)O)OC(=O)c1c2ccccc2cc2ccccc12` (stereo not drawn) [12-AO, 12-(9-anthroyloxy) oleic acid], the “Uptake by 3T3-L1 cells, Day 9” value (3T3-L1 cells [1]) was 10960 ± 1172 Raw Fluorescent Units and the “Uptake by 3T3-L1 cells, Day 0” value (3T3-L1 cells [1]) was 3613 ± 160 Raw Fluorescent Units.
With `O=C(O)CCCCCCCCCCCCCCCOC(=O)c1c2ccccc2cc2ccccc12` [16-AP, 16-(9-anthroyloxy) palmitic acid] the “Uptake by 3T3-L1 cells, Day 9” value (3T3-L1 cells [1]) was 8528 ± 20 Raw Fluorescent Units and the “Uptake by 3T3-L1 cells, Day 0” value (3T3-L1 cells [1]) was 2944 ± 404 Raw Fluorescent Units.
In the case of `CC1=[N+]2C(=Cc3ccc(CCCCCCCCCCCC(=O)O)n3[B-]2(F)F)C=C1` [BODIPY 500/510 C12, 4,4-difluoro-5-methyl-4-bora-3a,4a-diaza-s-indacene-3-dodecanoic acid], the “BODIPY uptake, Day 0” value (3T3-L1 cells [2]; incubation 10 min) is reported as 1290.263 rfu, the “BODIPY uptake, Day 8” value (3T3-L1 cells [2]; incubation 10 min) is reported as 1198.325 rfu and the “BODIPY uptake, Day 0” value (3T3-L1 cells [2]; incubation 30 min) is reported as 510.3125 rfu. For the same molecule, the “BODIPY uptake, Day 8” value (3T3-L1 cells [2]; incubation 30 min) was 18518.67 rfu, the “BODIPY uptake, Day 0” value (3T3-L1 cells [2]; incubation 120 min) was 686.9375 rfu and the “BODIPY uptake, Day 8” value (3T3-L1 cells [2]; incubation 120 min) was 46363 rfu. For the same molecule, the “BODIPY uptake, Day 0” value (3T3-L1 cells [2]; incubation 240 min) was 1104.125 rfu, the “BODIPY uptake, Day 8” value (3T3-L1 cells [2]; incubation 240 min) was 49153.33 rfu and the “Fatty acid uptake, Fluor. Units” value (3T3-L1 cells [2]; Day 8 in differentiation inducing medium, dye 120 minutes) was 18685 Fluor. Units. The “Uptake by 3T3-L1 cells, Day 9” value (3T3-L1 cells [1]) was 56869 ± 2093 Raw Fluorescent Units, the “Uptake by 3T3-L1 cells, Day 0” value (3T3-L1 cells [1]) was 404 ± 21 Raw Fluorescent Units and the “Fatty acid uptake, Fluor. Units” value (3T3-L1 cells [1]; Day 0 in differentiation inducing medium) was 1166.67 Fluor. Units. For the same molecule, the “Fatty acid uptake, Fluor. Units” value (3T3-L1 cells [1]; Day 2 in differentiation inducing medium) was 5006.75 Fluor. Units, the “Fatty acid uptake, Fluor. Units” value (3T3-L1 cells [1]; Day 4 in differentiation inducing medium) was 10884.5 Fluor. Units and the “Fatty acid uptake, Fluor. Units” value (3T3-L1 cells [1]; Day 6 in differentiation inducing medium) was 15441.8 Fluor. Units. For the same molecule, the “Fatty acid uptake, Fluor. Units” value (3T3-L1 cells [1]; Day 10 in differentiation inducing medium) was 31645.8 Fluor. Units and the “Fatty acid uptake, Fluor. Units” value (3T3-L1 cells [1]; Day 12 in differentiation inducing medium) was 37910 Fluor. Units.
`O=C([O-])CCCCCCCCCCCc1ccc2n1[B-](F)(F)[N+]1=C(c3cccs3)C=CC1=C2.[H+]` [BODIPY 558/568 C12, 4,4-difluoro-5-(2-thienyl) 1-4-bora-3a,4a-diaza-s-indacene-3-dodecanoic acid] was tested, and the “Uptake by 3T3-L1 cells, Day 9” value (3T3-L1 cells [1]) was 3622 ± 641 Raw Fluorescent Units and the “Uptake by 3T3-L1 cells, Day 0” value (3T3-L1 cells [1]) was 116 ± 9 Raw Fluorescent Units.
In the case of `C[C@@H]1C[C@H]2[C@@H]3CCC4=CC(=O)C=C[C@]4(C)[C@@]3(F)[C@@H](O)C[C@]2(C)[C@@]1(O)C(=O)CO` [Dex, dexamethasone], the “% Diff.” value (human preadipocytes [3]; [8]) is reported as 30%, the “% Diff.” value (human preadipocytes [3]; [9]) is reported as 70% and the “% Diff.” value (human preadipocytes [3]; [10]) is reported as 60%. The “Uptake Ratio” value (human preadipocytes [4]; [8]) was 5, the “Uptake Ratio” value (human preadipocytes [4]; [9]) was 79 and the “Uptake Ratio” value (human preadipocytes [4]; [10]) was 49.
In the case of `N#CC(C#N)=NNc1ccc(OC(F)(F)F)cc1` [FCCP, carbonyl cyanide p-(trifluoromethoxy)-phenylhydrazone], the “% Toxicity” value ([5]; 0.3 μM) is reported as −1%, the “% Toxicity” value ([5]; 1 μM) is reported as −4% and the “% Toxicity” value ([5]; 3 μM) is reported as 5%. For the same molecule, the Emax at 0.3 µM [6] was 42%, the Emax at 1 µM [6] was 79% and the Emax at 3 µM [6] was 90%. The “FA* uptake and/or accumulation” value [7] was “inhibits FA* uptake and/or accumulation in a dose-responsive manner”.
